Residues, ends and D or L forms follow the SMILES beside them.
Legend:
Assay type in all cases: cell-based
[1] = system: Candida albicans; experiment: Minimal Inhibitory Concentration, microtiter broth dilution assay; conditions: Mueller Hinton broth, 16-20 hours at 37° C., lowest concentration giving a clear well
Text: (§1) Table I, which follows, indicates the Minimal Inhibitory Concentration (MIC) in μg/ml of Peptides (SEQ ID NO:1) through (SEQ ID NO:4), (SEQ ID NO:6) through (SEQ ID NO:13), (SEQ ID NO:16), (SEQ ID NO:20), (SEQ ID NO:21) and (SEQ ID NO:23) against S. aureus strain ATCC 25923, P. aeruginosa strain ATCC 27853, E. coli strain 25922, and Candida albicans. The procedure for the antibacterial assay is based upon the guidelines of the National Committee for Clinical Laboratory Standards, Document M7-T2, Volume 8, No. 8, 1988. Stock solutions of the peptides hereinabove mentioned are prepared at a concentration of 512 μg/ml in sterile deionized distilled water and stored at […]. Each peptide is a C-terminal amide and may or may not be acetylated at the N-terminus. An acetyl group at the N-terminus is indicated by an X. The stock peptide solution is diluted in serial dilutions (1:2) down the wells of a microtiter plate so that the final concentrations of peptides in the wells are 0.25, 0.50, 1, 2, 4, 8, 16, 32, 64, 128, and 256 μg/ml. 1-5×10^5 CFUs/ml of either S. aureus ATCC 25923, E. coli ATCC 25922, P. aeruginosa ATCC 27853, or Candida albicans were added to the wells in full strength Mueller Hinton broth (BBL 11443) from a mid-log culture. The inoculum is standardized spectrophotometrically at 600 nm and is verified by colony counts. The plates are incubated for 16-20 hours at 37° C., and the minimal inhibitory concentration (MIC) for each peptide is determined. Minimal inhibitory concentration is defined as the lowest concentration of peptide which produces a clear well in the microtiter plate.

[2] = system: S. aureus strain ATCC 25923; experiment: Minimal Inhibitory Concentration, microtiter broth dilution antibacterial assay; conditions: S. aureus ATCC 25923; Mueller Hinton broth; 16-20 hours at 37° C.; lowest concentration giving a clear well
Text: as §1

[3] = system: E. coli ATCC 25922; experiment: as above; conditions: Mueller Hinton broth, 16-20 hours at 37° C., lowest concentration giving a clear well
Text: as §1

[4] = system: P. aeruginosa strain ATCC 27853; experiment: as above; conditions: P. aeruginosa ATCC 27853; Mueller Hinton broth; 16-20 hours at 37° C.; lowest concentration giving a clear well
Text: as §1

SMILES | Minimal Inhibitory Concentration C. albicans [1] [µg/mL] | Minimal Inhibitory Concentration S. aureus [2] [µg/mL] | Minimal Inhibitory Concentration E. coli [3] [µg/mL] | Minimal Inhibitory Concentration P. aeruginosa [4] [µg/mL]
CC[C@H](C)[C@H](NC(=O)[C@H](C)NC(=O)[C@H](CCCCN)NC(=O)CNC(=O)[C@@H](NC(=O)[C@H](CCCCN)NC(=O)[C@H](CCCCN)NC(=O)[C@H](C)NC(=O)[C@H](CCCCN)NC(=O)[C@H](CCCCN)NC(=O)[C@H](CC(C)C)NC(=O)[C@@H](NC(=O)[C@H](CCCCN)NC(=O)CNC(=O)[C@@H](N)Cc1ccccc1)[C@@H](C)CC)[C@@H](C)CC)C(=O)N[C@H](C(=O)N[C@@H](CCCCN)C(=O)N[C@@H](Cc1ccccc1)C(=O)N[C@@H](CC(C)C)C(=O)N[C@@H](CCCCN)C(=O)N[C@@H](CCCCN)C(N)=O)C(C)C [(SEQ ID NO: 23)-NH2] (H-FGKILKKAKKIGKAIVKFLKK-NH2) | 128 | 16 | 32 | 
CC[C@H](C)[C@H](NC(C)=O)C(=O)NCC(=O)N[C@@H](CCCCN)C(=O)N[C@@H](Cc1ccccc1)C(=O)N[C@@H](CC(C)C)C(=O)N[C@@H](CCCCN)C(=O)N[C@@H](CCCCN)C(=O)N[C@@H](C)C(=O)N[C@@H](CCCCN)C(=O)N[C@@H](CCCCN)C(=O)N[C@@H](Cc1ccccc1)C(=O)NCC(=O)N[C@@H](CCCCN)C(=O)N[C@@H](C)C(=O)N[C@@H](Cc1ccccc1)C(=O)N[C@H](C(=O)N[C@@H](CCCCN)C(=O)N[C@H](C(=O)N[C@@H](CC(C)C)C(=O)N[C@@H](CCCCN)C(=O)N[C@@H](CCCCN)C(N)=O)[C@@H](C)CC)C(C)C [X- (SEQ ID NO: 1)-NH2] (Ac-IGKFLKKAKKFGKAFVKILKK-NH2) | 128 | 8 | 8 | 
CC[C@H](C)[C@H](NC(=O)CN)C(=O)NCC(=O)N[C@@H](CCCCN)C(=O)N[C@@H](Cc1ccccc1)C(=O)N[C@@H](CC(C)C)C(=O)N[C@@H](CCCCN)C(=O)N[C@@H](CCCCN)C(=O)N[C@@H](C)C(=O)N[C@@H](CCCCN)C(=O)N[C@@H](CCCCN)C(=O)N[C@@H](Cc1ccccc1)C(=O)NCC(=O)N[C@@H](CCCCN)C(=O)N[C@@H](C)C(=O)N[C@@H](Cc1ccccc1)C(=O)N[C@H](C(=O)N[C@@H](CCCCN)C(=O)N[C@H](C(=O)N[C@H](C(=O)N[C@@H](CCCCN)C(=O)N[C@@H](CCCCN)C(N)=O)C(C)C)[C@@H](C)CC)C(C)C [(SEQ ID NO: 6)-NH2] (H-GIGKFLKKAKKFGKAFVKIVKK-NH2) |  | 32 | 16 | 16
CC[C@H](C)[C@H](NC(=O)CN)C(=O)N[C@H](C(=O)NCC(=O)N[C@@H](CCCCN)C(=O)N[C@@H](Cc1ccccc1)C(=O)N[C@@H](CC(C)C)C(=O)N[C@@H](CCCCN)C(=O)N[C@@H](CCCCN)C(=O)N[C@@H](C)C(=O)N[C@@H](CCCCN)C(=O)N[C@@H](CCCCN)C(=O)N[C@@H](Cc1ccccc1)C(=O)NCC(=O)N[C@@H](CCCCN)C(=O)N[C@@H](C)C(=O)N[C@@H](Cc1ccccc1)C(=O)N[C@H](C(=O)N[C@@H](CCCCN)C(=O)N[C@H](C(=O)N[C@@H](CC(C)C)C(=O)N[C@@H](CCCCN)C(=O)N[C@@H](CCCCN)C(N)=O)[C@@H](C)CC)C(C)C)[C@@H](C)CC [(SEQ ID NO: 16)-NH2] (H-GIIGKFLKKAKKFGKAFVKILKK-NH2) | 64 | 4 | 8 | 
